According to US20250206704A1, “ENGINEERED IONOPHORES FOR TRANSPORT OF METAL IONS” (The Brigham and Women's Hospital, Inc., priority 2022, published 2025):
Values after ≈ are worked out from the molar mass of the structure shown. “Also recorded” adds a separate entry of the source. Where two headings read alike, the source gives them in different places. One block for each compound: values may come before it.

Legend:
[1] = test system: Staphylococcus epidermidis; test: MIC, broth microdilution; type: cell-based
Description: (§1) Next, Applicants evaluated the antibacterial activities of the ionophores. First, Applicants determined their minimum inhibitory concentration (MIC) in the gram-positive bacterium that causes hospital-acquired infections, Staphylococcus epidermidis.
(§2) Applicants reasoned that limiting extracellular zinc with EDTA would abolish ionophore activity by depleting the available metal ions for membrane transport. […] [24]
(§3) Staphylococcus epidermidis ATCC® 12228™, Staphylococcus caprae ATCC® 51549™, Bacillus subtilis ATCC® 6051™, and Bacillus cereus ATCC® 14579™ were grown in cation-adjusted Mueller-Hinton broth (CA-MHB) (catalog no. 90922, Sigma) as per the Clinical and Laboratory Standards Institute guidelines.2 Bacteria were routinely grown at 37° C. under aerobic conditions.
(§4) The MIC assay was performed according to the Clinical and Laboratory Standards Institute protocols.^3 The antibacterial activities of the compounds were measured using the broth microdilution method. Serial dilutions of compounds were prepared in cation-adjusted Müller Hinton Broth. Each dilution (100 μL) was dispensed to each well of a round-bottom plate to obtain final concentrations ranging from 0.07815-40 μM. Bacteria were grown at 37° C. overnight on cation-adjusted Müller Hinton Broth. The bacterial solution was prepared in 0.9% saline and adjusted to obtain an OD600=0.1 using a SpectraMax M5 (Molecular Devices). The resultant suspension was diluted 1:20 with cation-adjusted Müller Hinton Broth. The resulting mixture (10 μL) was added to each well of the plates (approximately 5×10^4 CFU/well), mixed, and incubated at 37° C. for 24 h. The MIC value was determined as the minimum concentration that inhibited the growth of bacteria.

[2] = test system: U2OS cells; test: Zinc imaging assay (DA-ZP1 fluorescence) of ionophore activity in U2OS cells; type: cell-based; conditions: U2OS cells; for ionophore activity (Zn^II transport, DA-ZP1 fluorescence): 10 μM Zn(II) and 10 μM compound, 1 hour, then DA-ZP1; for ionophore activity (DA-ZP1 fluorescence): 10 μM Zn(II) and 5 μM compound; for concentration at which ionophore activity is displayed: DA-ZP1, comparison with known ionophores
Description: A number of bispicolyl-based Zn^II-chelators were synthesized with increasing size at the ortho-position of phenolic OH by a one-step reductive amination between bispicolyl-amine and commercially available 3-substituted salicylaldehydes. Applicants examined the ionophore activity of bispicolyl analogs with methyl (Me, 2), isopropyl (iPr, 3), and tert-butyl (tBu, 4) substitutions (FIG. 1A). […] [13] The cells were first treated with ZnCl2 and ionophore candidates followed by DA-ZP1 treatment and fluorescence measurement.
Applicants experimentally determined the ionophore activity of these silyl-based compounds using the aforementioned DAZ-P1 assay in U2OS cells.
Applicants also determined metal-ion interference of the silyl-based ionophores with focused efforts on 8. Applicants designed a competition assay wherein Applicants pre-treated equimolar amounts of various metal ions, Mg^II, Ca^II, Mn^II, Fe^II, and Na^I, with 10 μM of Zn^II for 1 hour before treatment with DA-ZP1.
Finally, Applicants compared the activity of the designed compounds against known ionophores (FIGS. 2 and 11). […] [16]
In a 96-well plate, 20,000 U2OS cells were plated per well and cultured for 24 h in the incubator set to 37° C. with 5% CO2. […] The medium containing the compound was removed, and the cells were washed with 3×100 μL of fresh medium, and finally another 100 μL of 2 μM of DA-ZP1 was added to the corresponding cell culture medium containing HCS NuclearMask Blue Stain. The cells were again kept for 1 h in the incubator. The medium containing compound was removed, and the cells were washed with 1×100 μL of PBS and 2×100 μL of fresh medium, and finally, another 100 μL of fresh, dye-free medium was added. The cells were immediately imaged using a high-content fluorescence microscope (Operetta Phenix) in both the DAPI and FITC channels at 20× magnification. Images were analyzed using the Harmony software, and data were plotted using GraphPad Prism 9.

[3] = value quoted for comparison; cited from earlier work
[4] = test system: U2OS cells; test: U2OS cell viability assay (CellTiter-Glo); type: cell-based; conditions: Homo sapiens, 48 h, read-out: U2OS EC50 + 5 μM Zn^II
Procedure: as §2
U2OS cells were seeded in black 384-well plates at a density of 3,000 cells per well in 25 μL of medium per well. After seeding, the cells were left to adhere overnight. The compounds to be tested were added to the designated culture plates in 25 μL of medium in triplicate with a normalized DMSO concentration (0.05%) in all treatments, and the plates were placed at 37° C. in a humidified atmosphere containing 5% CO2. After 48 h, 40 μl of CellTiter-Glo (Promega) was added to each well and incubated for 30 min, after which the plate luminescence was analyzed in a PerkinElmer EnVision Manager 1.13 (PerkinElmer). The average growth of treated cells was calculated by correcting the values for background luminescence and was subsequently normalized to the average of the two lowest treatments of the compound in question. Data were plotted and fitted to a dose-response curve using GraphPad Prism 9.

[5] = test system: S. epidermidis, S. caprae, B. subtilis, B. cereus; test: Average MIC over the four gram-positive strains; type: cell-based
Procedure: as §1, §4

[6] = test system: Bacillus cereus; test: MIC, broth microdilution; type: cell-based; conditions: read-out: Strain MIC B. cereus
Procedure: as §1, §3, §4

[7] = test system: Bacillus subtilis; test: MIC, broth microdilution; type: cell-based; conditions: read-out: Strain MIC B. subtilis
Procedure: as §1, §3, §4

[8] = test system: Staphylococcus caprae; test: MIC, broth microdilution; type: cell-based; conditions: read-out: Strain MIC S. caprae
Procedure: as §1, §3, §4

[9] = test system: bacteria vs U2OS cells; test: Antibacterial selectivity (average molar MIC in bacteria vs EC50 in U2OS cells); type: cell-based
[10] = test system: U2OS cells; test: ICP-MS analysis of intracellular Zn(II) in U2OS cells; type: cell-based; conditions: 10 μM Zn(II) and 5 μM compound, 1 hour
Procedure: Next, Applicants used inductively coupled plasma mass spectrometry (ICP-MS) to validate the imaging assay and the ionophores activity (FIG. 1F). While the intracellular Zn^II levels where similar between DMSO and chelator 1, Zn^II concentrations inside cells were 3-fold higher when Applicants co-treated ionophores 8 and 9.
U2OS cells (˜200,000) were plated in a 6-well dish. After a day, the medium was aspirated, and Zn(II) (10 μM) and compounds (5 μM) containing media (2 mL) were added to each appropriate well. Cells were harvested by first washing each well with PBS containing EDTA (100 μM, 2×2.0 mL) and subsequently adding Milli-Q water ([…] to each well and incubating for 2-4 min. A portion of the resulting cell lysate (900 μL) was collected and transferred to an Eppendorf Safe-Lock tube, snap-frozen in N2(l), and then thawed at room temperature (RT) for a total of three freeze-thaw cycles. The insoluble lysate was pelleted (10 min at 10,000 g), and the soluble protein concentration of each sample was determined using the Pierce 660 nm Protein Assay in a 96-well plate (200 μL of reagent, 14 μL of sample, bovine serum albumin standard curve). Samples were then frozen and lyophilized overnight, and the resulting white, flaky solid was taken up in concentrated nitric acid (200 μL, ultrapure for trace metal analysis, BDH Aristar) and heated at 70° C. for 1 h. A portion of each sample (142 μL) was then diluted with water (2 mL) and a terbium internal standard (Agilent 5190-8590; stock at 10,000 parts per billion [ppb] in 10% nitric acid diluted to 100 ppb in Milli-Q water for addition to samples, 2 ppb final concentration), after which the metal content of the samples was assessed by ICP-MS. […] Therefore, 1 ppb was taken to be equal to 1 μg/L, and the molarity of a particular solution was considered equal to the measured concentration of a particular ion in ppb, divided by the molecular weight of the ion, multiplied by 10-6.

[11] = UV/Vis titration, stability constant (logK) with ZnCl2; type: physicochemical; conditions: UV/Vis titration with ZnCl2, TitrationFit
Description: Applicants validated the design principles by confirming that the silyl group lowered the binding affinity and shielded the hydrophilic pocket. […] [17] […] Applicants confirmed that all compounds bound Zn^II with 1:1 stoichiometry (FIG. 12). […] Applicants superimposed the X-ray structure of the TIPS-containing Zn^II:9 complex with the literature precedented Zn^II:1 and observed significant structural distortion in the Zn^II:9 complex, which could explain the lower logK.
A solution of ligand was prepared in acetonitrile. The starting concentration was chosen to be around 0.10 mM, based on the absorption maximum of the compound. This solution (2.5 mL) was pipetted into a quartz cuvette with a 1-cm optical path length. The titration was performed by the stepwise addition of a 10-mM ZnC12 solution in acetonitrile. The absorption spectra were measured over the range of 250-800 nm. The calculation of the stability constants was accomplished using TitrationFit.1

MIC ([1]; read-out: MIC): 7.2 µg/mL (≈ 19.9 µM)
SMILES: CC(C)(C)c1cccc(CN(Cc2ccccn2)Cc2ccccn2)c1O [Compound 4, 2-((bis(pyridin-2-ylmethyl)amino)methyl)-6-(tert-butyl)phenol]
ionophore activity (Zn^II transport, DA-ZP1 fluorescence) [2]: efficiently transported Zn^II

SMILES: CC(C)(C)[Si](c1ccccc1)(c1ccccc1)c1cccc(CN(Cc2ccccn2)Cc2ccccn2)c1O [Compound 10, 2-((bis(pyridin-2-ylmethyl)amino)methyl)-6-(tert-butyldiphenylsilyl)phenol]
MIC ([1]; read-out: MIC): ~5.4 µg/mL (≈ 9.93 µM) | ionophore activity (DA-ZP1 fluorescence) [2]: decreased the activity

SMILES: c1ccc(CN(CCN(Cc2ccccn2)Cc2ccccn2)Cc2ccccn2)nc1 [TPEN, reference compound]
logK (Zn^II binding) of known chelator/ionophore [3]: 15.5

SMILES: CC(C)(C)n1ccn([BH-](n2ccn(C(C)(C)C)c2=S)n2ccn(C(C)(C)C)c2=S)c1=S.[K+] [potassium hydrotris(N-tert-butyl-2-thioimidazolyl) borate, reference compound]
concentration at which ionophore activity is displayed [2]: 5 µM

SMILES: CC[Si](CC)(CC)c1cccc(CN(Cc2ccccn2)Cc2ccccn2)c1O [Compound 7, 2-((bis(pyridin-2-ylmethyl)amino)methyl)-6-(triethylsilyl)phenol]
MIC ([1]; read-out: MIC): ~8.4 µg/mL (≈ 20 µM)

SMILES: [O-][n+]1ccccc1S [Pyrithione, pyrithione, reference compound]
MIC [1]: 1.3 µg/mL (≈ 10.2 µM) | MIC ([1]; read-out: Strain MIC S. epidermidis): 1.3 µg/mL (≈ 10.2 µM) | CC50 [4]: 0.99 µM | MIC ([5]; read-out: Average MIC): 1.1 µg/mL | MIC ([5]; read-out: Average MIC (molar, in brackets)): 8.7 µM | MIC ([5]; read-out: average MIC): 1.1 µg/mL | MIC [6]: 1.3 µg/mL (≈ 10.2 µM) | MIC [7]: 1.3 µg/mL (≈ 10.2 µM) | MIC [8]: 0.6 µg/mL (≈ 4.72 µM) | antibacterial selectivity [9]: 0.11 times | selective toxicity to bacterial cells over mammalian cells [9]: 0.1 fold | antibacterial selectivity ([9]; ratio of average molar MIC and U2OS EC50, Table 4): 0.11 | concentration at which ionophore activity is displayed [2]: 5 µM

SMILES: CC[C@@H](C(=O)[C@@H](C)[C@@H](O)[C@H](C)[C@@H]1O[C@@H]([C@@H](CC)C(=O)O)CC[C@@H]1C)[C@H]1O[C@]2(C=C[C@@H](O)[C@]3(CC[C@@](C)([C@H]4CC[C@](O)(CC)[C@H](C)O4)O3)O2)[C@H](C)C[C@@H]1C [salinomycin, reference compound]
MIC [1]: 1.88 µg/mL (≈ 2.5 µM)

SMILES: CNc1ccc2oc(C[C@H]3O[C@@]4(CC[C@H]3C)O[C@H]([C@H](C)C(=O)c3ccc[nH]3)[C@H](C)C[C@H]4C)nc2c1C(=O)O [calcimycin, reference compound]
MIC [1]: ~0.16 µg/mL (≈ 0.306 µM)

SMILES: CC(C)(C)c1ccc(O)c(CN(Cc2ccccn2)Cc2ccccn2)c1 [Compound 5, 2-((bis(pyridin-2-ylmethyl)amino)methyl)-4-(tert-butyl)phenol]
antibacterial activity ([1]; control compound): no ionophore activity in U2OS cells or antibacterial activity | ionophore activity (Zn^II transport, DA-ZP1 fluorescence) [2]: poor ionophore activity; also recorded: no ionophore activity

SMILES: C[C@H](CCC(=O)O)C[C@H](C)C[C@H](C)C(=O)/C=C(\O)[C@H](C)C[C@H](C)C/C=C/[C@@H](C)[C@@H](O)[C@@H](C)[C@@H](O)C[C@@H]1CC[C@@](C)([C@H]2CC[C@@](C)([C@@H](C)O)O2)O1 [ionomycin, reference compound]
MIC [1]: 15 µg/mL (≈ 21.2 µM)

SMILES: CC[C@@H](C(=O)O)[C@@H]1O[C@@H]([C@@H](C)[C@H](O)[C@H](C)C(=O)[C@H](CC)[C@H]2O[C@]3(C=C[C@@H](O)[C@]4(CC[C@@](C)([C@H]5CC[C@](O)(CC)[C@H](C)O5)O4)O3)[C@H](C)C[C@@H]2C)[C@@H](C)C[C@@H]1C [narasin, reference compound]
MIC ([1]; read-out: MIC): 0.96 µg/mL (≈ 1.25 µM)

SMILES: C[Si](C)(C)c1cccc(CN(Cc2ccccn2)Cc2ccccn2)c1O [Compound 6, 2-((bis(pyridin-2-ylmethyl)amino)methyl)-6-(trimethylsilyl)phenol]
MIC ([1]; read-out: MIC): ~7.5 µg/mL (≈ 19.9 µM) | ionophore activity (DA-ZP1 fluorescence) [2]: elicited detectable fluorescence

logK (Zn^II binding) [11]: 12.5
SMILES: Oc1ccccc1CN(Cc1ccccn1)Cc1ccccn1 [Compound 1, 2-((bis(pyridin-2-ylmethyl)amino)methyl)phenol]
intracellular Zn^II level relative to DMSO [10]: similar
